The record followed here is ChEMBL document CHEMBL1914375, “New PDE4 inhibitors based on pharmacophoric similarity between papaverine and tofisopam” (Bioorg Med Chem Lett, 2011).

The nature of assay [1]: Inhibition of bovine aortic PDE4 using cAMP as substrate in presence of cGMP. More on the design: species or system Bos taurus.
The nature of assay [2]: Inhibition of bovine aortic endothelial cells PDE2 using cAMP as substrate in presence of cGMP. The format is cell-based, Bos taurus. The conditions noted are these: endothelial cell.
Assay [3] can be described thus: Inhibition of bovine aortic PDE3 using cAMP as substrate in presence of rolipram. More on the design: species or system Bos taurus.
Assay [4] is filed under the species Bos taurus. Kind of assay: Ratio of tofisopam IC50 to compound IC50 for bovine aortic PDE4 using cAMP as substrate in presence of cGMP.
In assay [5] the target is cGMP-specific 3',5'-cyclic phosphodiesterase (Bos taurus) (UniProt Q28156). Kind of assay: Inhibition of bovine aortic PDE5 using cGMP as substrate at 10 uM in presence of EGTA.
For assay [6], the species on record is Bos taurus. Kind of assay: Inhibition of bovine aortic PDE1 using calmodulin activated cGMP as substrate at 10 uM.
Assay [7] is filed under the species Bos taurus. As to the kind of experiment: Inhibition of bovine aortic PDE3 using cAMP as substrate at 10 uM in presence of rolipram.
A further assay relates to Endothelial cell. Kind of assay: Inhibition of bovine aortic endothelial cells PDE2 using cAMP as substrate at 10 uM in presence of cGMP. It is filed as cell-based. The conditions noted are these: Bos taurus.
For assay [8], the species on record is Bos taurus.
Description: Activity of bovine aortic PDE4
Assay [9] is described as follows: Competitive inhibition of bovine aortic PDE4 using cAMP as substrate by Lineweaver-Burk plot analysis. Details: species or system Bos taurus.
Assay [10] concerns the target cGMP-specific 3',5'-cyclic phosphodiesterase (Bos taurus, UniProt Q28156). As to the kind of experiment: Inhibition of bovine aortic PDE5 using cGMP as substrate in presence of EGTA.

Take `COc1ccc(Cc2nccc3cc(OC)c(OC)cc23)cc1OC` [PAPAVERINE]: the IC50 in assay [1] was 1100 nM.

For the molecule `CCC1C(C)=NN=C(c2ccc(OC)c(OC)c2)c2cc(OC)c(OC)cc21` (stereo not drawn) [TOFISOPAM], the IC50 worked out at 900 nM in assay [2], 5900 nM in assay [3] and 680 nM in assay [1].

Take `COc1cc2c(cc1OC)N(C)C(=O)CN=C2CCc1ccccc1`: in assay [1], the IC50 is above 20000 nM.

On to `CCOc1ccc(C(=O)c2ccc(N(C)Cc3ccccc3)cc2)cc1OCC`, for which, in assay [1], the IC50 turned out to be 2200 nM.

Take `COc1cc2c(cc1OC)C(c1ccc3ccccc3c1)=NNC(=O)C2`: in assay [1], the IC50 worked out at 1500 nM. Regarding `COc1cc2c(cc1OC)C(c1ccc(Cl)cc1)=NNC(=O)C2`, in assay [1], the IC50 worked out at 1500 nM. Same read-out and setting: in the case of `CCOc1ccc(C(=O)N2CCN(Cc3ccccc3)CC2)cc1OCC` it was 2300 nM; in that of `COc1cc2c(cc1OC)C(c1cc3ccccc3s1)=NN(C)C(=O)C2`, 300 nM. Consider `CCOc1cc2c(cc1OCC)C(c1cc3ccccc3s1)=NN(C)C(=O)C2`, for which, in assay [1], the IC50 stood at 87 nM. Further, in the assay filed under Bos taurus [4], the Ratio IC50 is 7. With `COc1cc2c(cc1OC)N(C)C(=O)CN=C2c1cc2ccccc2s1`, the IC50 in assay [1] was 2300 nM. Take `COc1cc2c(cc1OC)C(c1ccccc1)=NN(C)C(=O)C2`: the IC50 in assay [1] was 5100 nM. On the same count and under the same terms, in the case of `CCOc1ccc(C(=O)c2ccc(Cl)c(Cl)c2)cc1OCC` it was 7900 nM; in that of `COc1cc2c(cc1OC)C(c1ccccc1)=NNC(=O)C2`, 7700 nM; in that of `CCOc1cc2c(cc1OCC)C(c1ccc(Cl)cc1)=NNC(=O)C2`, 800 nM. Same read-out and setting: in the case of `CCOc1cc2c(cc1OCC)C(c1cccc(Cl)c1)=NNC(=O)C2` it was 1400 nM. On the same count and under the same terms, in the case of `CCOc1ccc(C(=O)N2CCCCC2)cc1OCC` it was 3600 nM; in that of `COc1cc2c(cc1OC)C(c1ccc(Cl)c(Cl)c1)=NNC(=O)C2`, 300 nM; in that of `COc1cc2c(cc1OC)C(c1cccc(Cl)c1)=NNC(=O)C2`, 7700 nM. Turning to `CCOc1ccc(C2=NNC(=O)Cc3ccccc32)cc1OCC`, the inhibition in assay [5] amounted to 17%; in the assay filed under Bos taurus [6] it was 3%; in the assay filed under Bos taurus [7], 12%; in the assay on Endothelial cell, 27%. Besides, the half-inhibitory concentration (IC50) in assay [1] stood at 190 nM. Take `COc1cc2c(cc1OC)N(C)C(=O)CN=C2c1cccc(Cl)c1`: the IC50 in [1] was above 20000 nM. Still for that read-out and setting: in the case of `COc1cc2c(cc1OC)N(C)C(=O)CN=C2N1CCCCC1` it was above 20000 nM; in that of `CCOc1ccc(C(=O)c2cccc3ccccc23)cc1OCC`, 4300 nM. Take `Nc1ncnc2c1ncn2[C@@H]1O[C@@H]2COP(=O)(O)O[C@H]2[C@H]1O`: in the assay listed under Bos taurus [8], the Km stood at 0.71 µM. `COc1cc2c(cc1OC)N(C)C(=O)CN=C2c1ccccc1`: the IC50 in assay [1] was 18000 nM. As for `CCOc1cc2c(cc1OCC)C(CC)C(C)=NN=C2c1ccc(Cl)cc1` (stereo not drawn), the inhibition in assay [5] is 39%; in the assay filed under Bos taurus [7] it was 4%; in the assay on Endothelial cell it was 38%. For the same molecule, in [1], the IC50 worked out at 200 nM. On to `COc1cc2c(cc1OC)C(c1cc3ccccc3s1)=NNC(=O)C2`, for which the IC50 in assay [1] is 1200 nM. The same measure, in the same setting: in the case of `CCOc1ccc(C(=O)c2ccc3ccccc3c2)cc1OCC` it was 5000 nM. `CCOc1cc2c(cc1OCC)C(CC)C(C)=NN=C2c1cccc(Cl)c1` (stereo not drawn): the half-inhibitory concentration (IC50) in assay [1] came to 390 nM. Besides, the inhibition with Endothelial cell is 44%. With `COc1ccc(C(=O)N2CCCCC2)cc1OC`, the IC50 in [1] was 9600 nM. Same read-out and setting: in the case of `COc1cc2c(cc1OC)N(C)C(=O)CN=C2/C=C/c1ccccc1` it was 8400 nM. Molecule `CCOc1ccc(C2=NN(C)C(=O)Cc3ccccc32)cc1OCC` gave a Ki in assay [9] of 66 nM. In addition, the half-maximal inhibitory concentration (IC50) in assay [1] was 140 nM. For the molecule `CCOc1cc2c(cc1OCC)C(c1cc3ccccc3s1)=NNC(=O)C2`, in assay [1], the half-maximal inhibitory concentration (IC50) was found to be 260 nM.

As to `CCOc1cc2c(cc1OCC)C(c1ccccc1)=NNC(=O)C2`, the inhibition in [5] was found to be 30%; in the assay listed under Bos taurus [6], 37%; in the assay listed under Bos taurus [7], 30%; in the assay on Endothelial cell, 5%. The IC50 in assay [1] amounted to 800 nM. With `CCOc1ccc(C(=O)c2ccccc2Cl)cc1OCC`, the inhibition in assay [5] came out at 4%; in the assay filed under Bos taurus [6], 21%; in the assay listed under Bos taurus [7], 24%; in the assay on Endothelial cell, 46%. This molecule also came in with an inhibition constant Ki in assay [9] of 420 nM. In addition, in assay [1], the IC50 was found to be 1400 nM. Turning to `COc1cc2c(cc1OC)C(c1cccc(Cl)c1)=NN=C(C)C2` [GIRISOPAM], the IC50 in assay [2] was 4000 nM; in assay [1], 3200 nM; in assay [10], 12500 nM. Besides, the inhibition in the assay listed under Bos taurus [7] amounted to 22%. In the case of `CCOc1cc2c(cc1OCC)N(C)C(=O)CN=C2c1ccccc1`, in assay [1], the half-maximal inhibitory concentration (IC50) is 860 nM. As for `CCOc1ccc(Cc2nccc3cc(OCC)c(OCC)cc23)cc1OCC` [ETHAVERINE], the IC50 in [1] came to 400 nM. For the molecule `COc1cc2c(cc1OC)N(C)C(=O)CN=C2c1ccc(Cl)cc1`, in [1], the IC50 is above 20000 nM. The same measure, in the same setting: in the case of `COc1cc2c(cc1OC)C(c1ccccc1)=NCC(=O)N2` it was above 20000 nM; in that of `COc1cc2c(cc1OC)N(C)C(=O)CN=C2C#Cc1ccccc1`, 1600 nM; in that of `CCOc1ccc(C(=O)c2ccccc2)cc1OCC`, 2900 nM. Still for that read-out and setting: in the case of `CCOc1ccc(C(=O)c2ccc(Cl)cc2)cc1OCC` it was above 20000 nM; in that of `CCOc1ccc(C(=O)N2CCN(c3ccccc3)CC2)cc1OCC`, 17000 nM; in that of `CCOc1cc2c(cc1OCC)C(c1ccccc1)=NCC(=O)N2`, 950 nM.

A word on the IC50: it is the midpoint of a concentration-inhibition curve. As a reminder, the inhibition is the relative decrease from the control value, in per cent. What is called Km is the concentration of substrate that gives half-maximal velocity. The Ki is the dissociation constant of the complex between target and ligand, obtained from inhibition or displacement. A lower Ki goes with a stronger hold on the target.
